Data: PubChem BioAssay (NCI)
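These data come from cells grown in 96-well plates and exposed to compound for 48 hours at five concentrations. GI50 is the concentration that inhibits growth by half. The concentration for full growth arrest is given as TGI.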

Columns and labels:
Experiment in all cases: DTP human tumour cell line panel, 48 h
[1] = tested on: SK-OV-3 ovarian
[2] = tested on: KM12 colon
[3] = tested on: COLO 205 colon
[4] = tested on: PC-3 prostate
[5] = tested on: UACC-257 melanoma
[6] = tested on: SF-268 CNS
[7] = tested on: IGROV1 ovarian
[8] = tested on: DU-145 prostate
[9] = tested on: UACC-62 melanoma
[10] = tested on: MCF7 breast

`C/C(=N\O)c1cccc[n+]1Cc1ccccc1` was tested, and the TGI [1] was over 100 µM, the TGI [2] was over 100 µM and the TGI [3] was over 100 µM. For the same molecule, the TGI [4] was over 100 µM, the TGI [5] was over 100 µM and the TGI [6] was over 100 µM. The TGI [7] was over 100 µM, the TGI [8] was over 100 µM and the TGI [9] was over 100 µM. The TGI [10] was over 100 µM.
With `CC(Oc1ccccc1)C(=O)NNC(=O)OC(C)(C)C` (configuration not stated) the TGI [1] was over 100 µM, the TGI [2] was over 100 µM and the TGI [3] was over 100 µM. It also gave a TGI [4] of over 100 µM, a TGI [5] of over 100 µM and a TGI [6] of over 100 µM. The TGI [7] was over 100 µM, the TGI [8] was over 100 µM and the TGI [9] was over 100 µM. It also gave a TGI [10] of over 100 µM.
In the case of `O=C(NO)NCCCl`, the TGI [1] is reported as over 100 µM, the TGI [2] is reported as over 100 µM and the TGI [3] is reported as over 100 µM. It also gave a TGI [4] of over 100 µM, a TGI [5] of over 100 µM and a TGI [6] of over 100 µM. For the same molecule, the TGI [7] was over 100 µM, the TGI [8] was over 100 µM and the TGI [9] was over 100 µM. For the same molecule, the TGI [10] was over 100 µM.
`Br[C@@H]1[C@H]2c3nc4ccccc4nc3[C@@H]1C[C@H]2Br` gave a TGI [1] of over 100 µM, a TGI [2] of over 100 µM and a TGI [3] of over 100 µM. For the same molecule, the TGI [4] was over 100 µM, the TGI [5] was over 100 µM and the TGI [6] was over 100 µM. For the same molecule, the TGI [7] was over 100 µM, the TGI [8] was over 100 µM and the TGI [9] was over 100 µM. For the same molecule, the TGI [10] was over 100 µM.
Molecule `O=c1c(Cc2ccc(Cl)cc2)nnc2sc(-c3ccc(-c4ccc(Cl)cc4Cl)o3)nn12` has a TGI [1] of over 100 µM, a TGI [2] of over 100 µM and a TGI [3] of over 100 µM. It also gave a TGI [4] of over 100 µM, a TGI [5] of over 100 µM and a TGI [6] of over 100 µM. It also gave a TGI [7] of over 100 µM, a TGI [8] of over 100 µM and a TGI [9] of over 100 µM. For the same molecule, the TGI [10] was over 100 µM.
In the case of `C/C(=C/CC[C@]1(CO)CC[C@]2(C)[C@H](CC[C@@H]3[C@@]4(C)CC[C@H](OC5OC(CO)C(O)C(O)C5OC5OC(CO)C(O)C(O)C5O)C(C)(C)[C@@H]4CC[C@]32C)[C@H]1O)CO` (some centres not stated), the TGI [1] is reported as over 100 µM, the TGI [2] is reported as over 100 µM and the TGI [3] is reported as over 100 µM. For the same molecule, the TGI [4] was over 100 µM, the TGI [5] was over 100 µM and the TGI [6] was over 100 µM. For the same molecule, the TGI [7] was over 100 µM, the TGI [8] was over 100 µM and the TGI [9] was over 100 µM. It also gave a TGI [10] of over 100 µM.
For `CSc1nc(N)c2c(-c3ccccc3)c3c(nc2n1)CCCC3`, the TGI [1] was over 100 µM, the TGI [2] was over 100 µM and the TGI [3] was over 100 µM. It also gave a TGI [4] of over 100 µM, a TGI [5] of over 100 µM and a TGI [7] of over 100 µM. It also gave a TGI [8] of over 100 µM, a TGI [9] of over 100 µM and a TGI [10] of over 100 µM.
`CC(C)C1=CC(=O)[C@@](C)(C2[C@H](O)C[C@@]3(C)[C@@H]4CC=C5[C@@H](CC[C@@H](OC6OCC(O)C(O)C6OC6OC(C)C(O)C(O)C6O)C5(C)C)[C@]4(C)C(=O)C[C@]23C)O1` (some centres not stated) was tested, and the TGI [1] was over 100 µM, the TGI [2] was over 100 µM and the TGI [3] was over 100 µM. It also gave a TGI [4] of over 100 µM, a TGI [6] of over 100 µM and a TGI [7] of over 100 µM. It also gave a TGI [8] of over 100 µM, a TGI [9] of over 100 µM and a TGI [10] of over 100 µM.
Work on `O=c1[nH]c(=O)n(COCc2ccccc2)cc1Nc1ccc(Br)cc1` yielded a TGI [2] of over 100 µM, a TGI [3] of over 100 µM and a TGI [4] of over 100 µM. It also gave a TGI [5] of over 100 µM, a TGI [6] of over 100 µM and a TGI [7] of over 100 µM. The TGI [8] was over 100 µM, the TGI [9] was over 100 µM and the TGI [10] was over 100 µM.
In the case of `C=C(Cl)C(Cl)(CCl)CCC(Br)C(C)(C)Br` (configuration not stated), the TGI [1] is reported as over 10 µM, the TGI [2] is reported as over 10 µM and the TGI [3] is reported as over 10 µM. The TGI [4] was over 10 µM, the TGI [6] was over 10 µM and the TGI [7] was over 10 µM. It also gave a TGI [8] of over 10 µM, a TGI [9] of over 10 µM and a TGI [10] of over 10 µM.
In the case of `Nc1nc(Cl)c(Cl)c(NCC2(O)CCC2)n1`, the TGI [1] is reported as over 100 µM, the TGI [2] is reported as over 100 µM and the TGI [4] is reported as over 100 µM. It also gave a TGI [5] of over 100 µM, a TGI [6] of over 100 µM and a TGI [7] of over 100 µM. For the same molecule, the TGI [8] was over 100 µM, the TGI [9] was over 100 µM and the TGI [10] was over 100 µM.
`OC1COC2CC(Nc3ccccn3)OC12` (configuration not stated) showed a TGI [1] of over 100 µM, a TGI [2] of over 100 µM and a TGI [3] of over 100 µM. The TGI [4] was over 100 µM, the TGI [5] was over 100 µM and the TGI [6] was over 100 µM. The TGI [7] was over 100 µM and the TGI [9] was over 100 µM.
`COc1cc(-c2c3c(cc4c2OCO4)[C@@H](Nc2ccc(-c4ccc(-c5ccc(N[C@@H]6c7cc8c(cc7C(c7cc(OC)c(O)c(OC)c7)[C@H]7C(=O)OC[C@H]67)OCO8)cc5)cc4)cc2)[C@H]2COC(=O)[C@@H]2C3)cc(OC)c1O` (some centres not stated) showed a TGI [1] of 10.1 µM, a TGI [2] of 4.63 µM and a TGI [3] of 3.34 µM. For the same molecule, the TGI [4] was 8.37 µM, the TGI [5] was 80.4 µM and the TGI [6] was 10.9 µM. The TGI [7] was 2.68 µM, the TGI [8] was 4.74 µM and the TGI [10] was 12.1 µM.
With `CCCCCCCCCCCCCC[n+]1ccc(C)cc1` the GI50 [1] was 1.8 µM, the TGI [1] was 5.56 µM and the GI50 [2] was 0.281 µM. For the same molecule, the TGI [2] was 0.802 µM, the GI50 [3] was 1.22 µM and the TGI [3] was 2.67 µM. It also gave a GI50 [4] of 0.455 µM, a TGI [4] of 2.63 µM and a GI50 [5] of 0.763 µM. It also gave a TGI [5] of 2.48 µM, a GI50 [6] of 0.447 µM and a TGI [6] of 1.7 µM. For the same molecule, the GI50 [7] was 0.349 µM, the TGI [7] was 0.953 µM and the GI50 [8] was 0.608 µM. It also gave a TGI [8] of 1.83 µM, a GI50 [9] of 1.08 µM and a TGI [9] of 2.57 µM.
With `Clc1ccc(C[P+](c2ccccc2)(c2ccccc2)c2ccccc2)cc1Cl` the TGI [1] was 20.8 µM, the TGI [2] was 11.3 µM and the TGI [3] was 2.95 µM. The TGI [5] was 8.32 µM, the TGI [6] was 11.3 µM and the TGI [7] was 14.6 µM. For the same molecule, the TGI [9] was 9.33 µM.
